Patent US20100069325A1, “Pharmaceutical composition for treatment of chronic liver diseases and use thereof” (priority 2008, published 2010)

Key:
[1] = test system: rats having DMN-induced liver fibrosis; experiment: Comparison of therapeutic effect between composition and single component on rats having DMN-induced liver fibrosis (Example 5); assay type: in vivo, SD rats; settings: DMN model; for ALT (activity of blood serum) / AST (activity of blood serum) / GGT (activity of blood serum) / Hyp (content in liver tissues) / Tbil (content of blood serum): gavage, two weeks of treatment, x ± s; for Degree of liver fibrosis S0 (number of rats) / Degree of liver fibrosis S1 (number of rats) / Degree of liver fibrosis S2 (number of rats) / Degree of liver fibrosis S3 (number of rats) / Degree of liver fibrosis S4 (number of rats): HE and Sirius red staining, S0-S4 staging; for Degree of liver fibrosis S0 (number of rats): stage S0; for Degree of liver fibrosis S1 (number of rats): stage S1; for Degree of liver fibrosis S2 (number of rats): stage S2; for Degree of liver fibrosis S3 (number of rats): stage S3; for Degree of liver fibrosis S4 (number of rats): stage S4
Text: Modeling and grouping: 80 SD rats were randomly divided into a normal group (6) and modeling groups (74). The modeling method was the same as that in Example 1. Four weeks later, 4 rats from the modeling group died. The remaining […] rats were randomly divided into a model group, a Composition A group, groups having a single component of Composition A, a first control group of Fuzhenghuayu capsule, and a second control group of colchicines, each group 10 rats. The administered dose of colchicines was 0.1 mg/Kg, Fuzhenghuayu capsule 4.6 g/Kg. The Composition A group was administered Cordyceps sinensis polysaccharide 60 mg/Kg, Gypenoside 50 mg/Kg, and Amygdaloside 80 mg/Kg. The administered dose of the Gypenoside group was 200 mg/Kg, Amygdaloside 80 mg/Kg, and Cordyceps sinensis polysaccharide 60 mg/Kg. Each group was administered by gavage in a volume of 10 mL/Kg. The model group was administered the same volume of drinking water. After two weeks of treatment, the remaining 61 rats were anesthetized by intraperitoneal injection of 2% pentobarbital sodium. […] Liver tissue was also collected in centrifuge tubes (1.5 mL) for analyzing. Two liver tissues from a hepatic lobule was collected and immersed in a formalin solution for testing.
Observing index and method: the content of hydroxyproline (Hyp) in liver tissues (Jamall's method); liver function of blood serum; liver tissues were stained with HE and Sirius red respectively to determine the degree of liver fibrosis according to the S0-S4 staging criteria in literatures.
The obtained data was expressed as x±s and analysed statistically with software SPSS 12.0 for variance analysis and comparison between groups. The comparison of ranked data between groups was performed by Ridit analysis.

[2] = test system: rats having CCl4-induced liver fibrosis; experiment: Comparison of therapeutic effect between composition and single component on rats having CCl4-induced liver fibrosis (Example 6); assay type: in vivo, SD rats; settings: CCl4 model; for ALT (activity of blood serum) / AST (activity of blood serum) / Alb (content of blood serum) / GGT (activity of blood serum) / Hyp (content in liver tissues) / Tbil (content of blood serum): SD rats, three weeks of treatment while modeling, x ± s
Text: Modeling and grouping: 86 SD rats were randomly divided into a normal group (6) and modeling groups (80). The modeling method was the same as that in Example 2. Six weeks later, 2 rats from the modeling group died. The remaining 78 rats were randomly divided into a model group (12), a Composition A group (11), groups having a single component of Composition A (each group with 11 rats), a first control group of Fuzhenghuayu capsule (11), and a second control group of colchicine (11). The administered dose was the same as those in Example 5. After three weeks of treatment while modeling, the remaining […] rats were anesthetized by intraperitoneal injection of 2% pentobarbital sodium. […] Liver tissue was also collected in centrifuge tubes (1.5 mL) for analyzing. Two liver tissues from a hepatic lobule was collected and immersed in a formalin solution for testing.
Observing index and method: the same as those in Example 5.
The obtained data was expressed as x±s and analysed statistically with software SPSS 12.0 for variance analysis and comparison between groups.

With N#C[C@H](O[C@@H]1O[C@H](CO[C@@H]2O[C@H](CO)[C@@H](O)[C@H](O)[C@H]2O)[C@@H](O)[C@H](O)[C@H]1O)c1ccccc1 [Amygdaloside] the “effect on DMN-induced liver fibrosis (in words)” value ([1]; SD rats) was “can weaken the DMN-induced liver fibrosis”, the “ALT (activity of blood serum)” value ([1]; SD rats) was 55.39 ± 15.56 U · ml^−1 and the “AST (activity of blood serum)” value ([1]; SD rats) was 69.13 ± 15.74 U · ml^−1. The “GGT (activity of blood serum)” value ([1]; SD rats) was 37.01 ± 19.92 U · ml^−1, the “Hyp (content in liver tissues)” value ([1]; SD rats) was 323 ± 79 μg · g^−1 liver weight and the “Tbil (content of blood serum)” value ([1]; SD rats) was 0.95 ± 0.58 mg/dL. The “Degree of liver fibrosis S0 (number of rats)” value [1] was 0, the “Degree of liver fibrosis S1 (number of rats)” value [1] was 1 and the “Degree of liver fibrosis S2 (number of rats)” value [1] was 4. The “Degree of liver fibrosis S3 (number of rats)” value [1] was 3, the “Degree of liver fibrosis S4 (number of rats)” value [1] was 0 and the “ALT (activity of blood serum)” value [2] was 220.8 ± 47.4 ## U · ml^−1. The “AST (activity of blood serum)” value [2] was 249.1 ± 47.4 U · ml^−1, the “Alb (content of blood serum)” value [2] was 23.67 ± 2.84 g/L and the “GGT (activity of blood serum)” value [2] was 16.10 ± 6.74 U · ml^−1. For the same molecule, the “Hyp (content in liver tissues)” value [2] was 403 ± 89 # μg · g^−1 liver weight and the “Tbil (content of blood serum)” value [2] was 0.85 ± 0.23 mg/dL.

COc1cc2c(c(OC)c1OC)-c1ccc(OC)c(=O)cc1[C@@H](NC(C)=O)CC2 [Colchicine] was tested, and the “ALT (activity of blood serum)” value ([1]; SD rats) was 47.55 ± 17.47 U · ml^−1, the “AST (activity of blood serum)” value ([1]; SD rats) was 62.81 ± 13.04 U · ml^−1 and the “GGT (activity of blood serum)” value ([1]; SD rats) was 31.30 ± 17.21 U · ml^−1. The “Hyp (content in liver tissues)” value ([1]; SD rats) was 300 ± 47 μg · g^−1 liver weight, the “Tbil (content of blood serum)” value ([1]; SD rats) was 0.86 ± 0.56 mg/dL and the “Degree of liver fibrosis S0 (number of rats)” value [1] was 0. For the same molecule, the “Degree of liver fibrosis S1 (number of rats)” value [1] was 1, the “Degree of liver fibrosis S2 (number of rats)” value [1] was 5 and the “Degree of liver fibrosis S3 (number of rats)” value [1] was 2. For the same molecule, the “Degree of liver fibrosis S4 (number of rats)” value [1] was 0, the “collagen fibers, Sirius red staining of liver tissues” value ([1]; compared with the model group, FIG. 1) was “decreased as compared with the model group” and the “ALT (activity of blood serum)” value [2] was 192.6 ± 60.9 # U · ml^−1. For the same molecule, the “AST (activity of blood serum)” value [2] was 220.9 ± 60.9 # U · ml^−1, the “Alb (content of blood serum)” value [2] was 24.59 ± 2.11 ## g · l^−1 and the “GGT (activity of blood serum)” value [2] was 13.87 ± 9.13 U · ml^−1. For the same molecule, the “Hyp (content in liver tissues)” value [2] was 373 ± 112 μg · g^−1 liver weight, the “Tbil (content of blood serum)” value [2] was 0.74 ± 0.25 mg/dL and the “collagen fibers, Sirius red staining of liver tissues” value ([2]; compared with the model group, FIG. 2) was “decreased as compared with the model group”.
